From patent US20230263822A1, “MODULATION OF FACTOR 11 EXPRESSION” (Ionis Pharmaceuticals, Inc., priority 2008, published 2023)
Strand notation (5' to 3'): a small letter for the sugar, then the base; units joined by * are phosphorothioate-linked, units joined directly phosphodiester-linked; [ ] holds rarer units or linkages, { } end groups; capitals alone tell only the bases. e = 2'-O-(2-methoxyethyl) (MOE); [5mC] = 5-methylcytosine; d = 2'-deoxy (DNA)

Legend:
Format in all cases: cell-based
human Factor 11 mRNA [1] = assay: Antisense inhibition of human Factor 11 in HepG2 cells, lipofectin, 75 nM (Example 1); conditions: 75 nM antisense oligonucleotide, ~24 h, relative to untreated control cells, gapmers targeted to SEQ ID NO: 1
In short: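 HepG2 cells transfected via lipofectin with 75 nM antisense oligonucleotide (5-10-5 MOE gapmers, 20-mers, phosphorothioate, 5-methylcytidines), treated ~24 h. Factor 11 mRNA quantified by real-time PCR, normalised to RIBOGREEN total RNA; percent inhibition versus untreated cells.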

human Factor 11 mRNA [2] = assay: Dose-dependent antisense inhibition of human Factor 11 in HepG2 cells, lipofectin 9.375-150 nM (Example 2); conditions: ~16 h
Procedure: Cells were plated at a density of 10,000 cells per well and transfected using lipofectin reagent with 9.375 nM, 18.75 nM, 37.5 nM, 75 nM, and 150 nM concentrations of antisense oligonucleotide, as specified in Table 3. After a treatment period of approximately 16 hours, RNA was isolated from the cells and Factor 11 mRNA levels were measured by quantitative real-time PCR. Human Factor 11 primer probe set RTS 2966 (forward sequence: […], incorporated herein as SEQ ID NO: 3; reverse sequence: […], incorporated herein as SEQ ID NO: 4; probe sequence: TTGTCTACTGAAGCACACCCAAACAGGGAX, incorporated herein as SEQ ID NO: 5) was used to measure mRNA levels. Factor 11 mRNA levels were adjusted according to total RNA content, as measured by RIBOGREEN. Results are presented as percent inhibition of Factor 11, relative to untreated control cells.

human Factor 11 mRNA [3] = assay: Antisense inhibition of human Factor 11 in HepG2 cells by microwalk gapmers, lipofectin, 75 nM (Example 3)
In short: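 HepG2 cells (10,000/well) were transfected via lipofectin with 75 nM 20-mer MOE gapmers (phosphorothioate, 5-methyl-C) for about 24 h. Factor 11 mRNA was measured by qRT-PCR, normalized to RIBOGREEN total RNA, and given as percent inhibition versus untreated cells.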

human Factor 11 mRNA [4] = assay: Antisense inhibition of human Factor 11 in HepG2 cells, electroporation, 8,000 nM (Example 30); conditions: electroporation, 8,000 nM antisense oligonucleotide
Procedure: These microwalk gapmers were tested in vitro. Cultured HepG2 cells at a density of 20,000 cells per well were transfected using electroporation with 8,000 nM antisense oligonucleotide. After a treatment period of approximately 24 hours, RNA was isolated from the cells and Factor 11 mRNA levels were measured by quantitative real-time PCR. Factor 11 mRNA levels were adjusted according to total RNA content, as measured by RIBOGREEN. Results are presented as percent inhibition of Factor 11, relative to untreated control cells.
The chimeric antisense oligonucleotides in Table 44 were designed as 5-10-5 MOE, 5-8-5 and 6-8-6 MOE gapmers. The first two listed gapmers in Table 44 are the original gapmers (ISIS 416850 and ISIS 416858) from which ISIS 445493-445543 were designed via microwalk, and are designated by an asterisk. The 5-10-5 gapmers are 20 nucleotides in length, wherein the central gap segment is comprised of ten 2′-deoxynucleotides and is flanked on both sides (in the 5′ and 3′ directions) by wings comprising five nucleotides each. The 5-8-5 gapmers are 18 nucleotides in length, wherein the central gap segment is comprised of eight 2′-deoxynucleotides and is flanked on both sides (in the 5′ and 3′ directions) by wings comprising five nucleotides each. The 6-8-6 gapmers are 20 nucleotides in length, wherein the central gap segment is comprised of eight 2′-deoxynucleotides and is flanked on both sides (in the 5′ and 3′ directions) by wings comprising six nucleotides each. For each of the motifs (5-10-5, 5-8-5 and 6-8-6), each nucleotide in the 5′ wing segment and each nucleotide in the 3′ wing segment has a 2′-MOE modification. The internucleoside linkages throughout each gapmer are phosphorothioate (P=S) linkages. All cytidine residues throughout each gapmer are 5-methylcytidines. “Human Target start site” indicates the 5′-most nucleotide to which the gapmer is targeted in the human sequence. “Human Target stop site” indicates the 3′-most nucleotide to which the gapmer is targeted in the human sequence. Each gapmer listed in Table 44 is targeted to SEQ ID NO: 1 (GENBANK Accession No. NM_000128.3). Each gapmer is Table 44 is also fully cross-reactive with the rhesus monkey Factor 11 gene sequence, designated herein as SEQ ID NO: 274 (exons 1-15 GENBANK Accession No. NW_001118167.1). ‘Rhesus monkey start site’ indicates the 5′-most nucleotide to which the gapmer is targeted in the rhesus monkey sequence. ‘Rhesus monkey stop site’ indicates the 3′-most nucleotide to which the gapmer is targeted to the rhesus monkey sequence.

human Factor 11 mRNA [5] = assay: Dose-dependent inhibition of human Factor 11 in HepG2 cells, electroporation 123.46-10,000 nM (Example 31); conditions: for Percent inhibition of Factor 11 mRNA at 123.47 nM / Percent inhibition of Factor 11 mRNA at 370.37 nM / IC50: electroporation; for Percent inhibition of Factor 11 mRNA at 123.47 nM / Percent inhibition of Factor 11 mRNA at 370.37 nM / Percent inhibition of Factor 11 mRNA at 1,111.11 nM / Percent inhibition of Factor 11 mRNA at 3,333.33 nM / Percent inhibition of Factor 11 mRNA at 10,000.0 nM: approx. 16 hours, relative to untreated control cells; for Percent inhibition of Factor 11 mRNA at 1,111.11 nM: electroporation, 1,111.11 nM; for Percent inhibition of Factor 11 mRNA at 3,333.33 nM: electroporation, 3,333.33 nM; for Percent inhibition of Factor 11 mRNA at 10,000.0 nM: electroporation, 10,000.0 nM; for IC50: Factor 11 mRNA expression
Procedure: Cells were plated at a density of 20,000 cells per well and transfected using electroporation with 123.46 nM, 370.37 nM, 1,111.11 nM, 3,333.33 nM and 10,000 nM concentrations of antisense oligonucleotide, as specified in Table 45. After a treatment period of approximately 16 hours, RNA was isolated from the cells and Factor 11 mRNA levels were measured by quantitative real-time PCR. Human Factor 11 primer probe set RTS 2966 was used to measure mRNA levels. Factor 11 mRNA levels were adjusted according to total RNA content, as measured by RIBOGREEN. Results are presented as percent inhibition of Factor 11, relative to untreated control cells.

[6] = HepG2 cells, lipofectin, gapmers targeted to nucleobases 1275 to 1318 of SEQ ID NO: 1

| Substance | % inhibition (human Factor 11 mRNA [3]; [6]) | Percent inhibition of human Factor 11 mRNA levels (human Factor 11 mRNA [4]) | Percent inhibition of Factor 11 mRNA at 123.47 nM (human Factor 11 mRNA [5]) | Percent inhibition of Factor 11 mRNA at 370.37 nM (human Factor 11 mRNA [5]) | Percent inhibition of Factor 11 mRNA at 1,111.11 nM (human Factor 11 mRNA [5]) | Percent inhibition of Factor 11 mRNA at 3,333.33 nM (human Factor 11 mRNA [5]) | Percent inhibition of Factor 11 mRNA at 10,000.0 nM (human Factor 11 mRNA [5]) | IC50 (human Factor 11 mRNA [5]) | other results |
| --- | --- | --- | --- | --- | --- | --- | --- | --- | --- |
| 413468 (antisense eG*eT*e[5mC]*eT*eA*dG*dG*dT*d[5mC]*d[5mC]*dA*d[5mC]*dA*dT*dA*eA*eA*eT*eG*eT) [compound 413468] | – | – | – | – | – | – | – | – | % inhibition (human Factor 11 mRNA [1]): 84%; percent inhibition of Factor 11 at 9.375 nM (human Factor 11 mRNA [2]; 9.375 nM): 14%; percent inhibition of Factor 11 at 18.75 nM (human Factor 11 mRNA [2]; 18.75 nM): 34%; percent inhibition of Factor 11 at 37.5 nM (human Factor 11 mRNA [2]; 37.5 nM): 56%; percent inhibition of Factor 11 at 75 nM (human Factor 11 mRNA [2]; 75 nM): 78%; percent inhibition of Factor 11 at 150 nM (human Factor 11 mRNA [2]; 150 nM): 75%; IC50 (human Factor 11 mRNA [2]): 35 nM; % inhibition (human Factor 11 mRNA [3]; HepG2, lipofectin, ~24 h, gapmers targeted to nucleobases 656 to 704 of SEQ ID NO: 1): 83% |
| 416862 (antisense eA*eG*e[5mC]*eG*eG*dA*d[5mC]*dG*dG*d[5mC]*dA*dT*dT*dG*dG*eT*eG*e[5mC]*eA*e[5mC]) [compound 416862] | 90% | 89% | – | – | – | – | – | – | – |
| 445503 (antisense eG*e[5mC]*eA*eT*eT*eG*dG*dT*dG*d[5mC]*dA*d[5mC]*dA*dG*eT*eT*eT*e[5mC]*eT*eG) [compound 445503] | – | 89% | 0% | 0% | 22% | 36% | 60% | 5900 nM | – |
| 416849 (antisense eG*e[5mC]*eA*e[5mC]*eA*dG*dT*dT*dT*d[5mC]*dT*dG*dG*d[5mC]*dA*eG*eG*e[5mC]*e[5mC]*eT) [compound 416849] | 88% | 88% | 5% | 5% | 26% | 57% | 68% | 2700 nM | – |
| 445532 (antisense e[5mC]*eG*eG*e[5mC]*eA*dT*dT*dG*dG*dT*dG*d[5mC]*dA*e[5mC]*eA*eG*eT*eT) [compound 445532] | – | 89% | 5% | 12% | 39% | 60% | 70% | 2000 nM | – |
| 416854 (antisense eA*eT*eT*eG*eG*dT*dG*d[5mC]*dA*d[5mC]*dA*dG*dT*dT*dT*e[5mC]*eT*eG*eG*e[5mC]) [compound 416854] | 90% | 86% | – | – | – | – | – | – | – |
| 416855 (antisense e[5mC]*eA*eT*eT*eG*dG*dT*dG*d[5mC]*dA*d[5mC]*dA*dG*dT*dT*eT*e[5mC]*eT*eG*eG) [compound 416855] | 87% | 85% | – | – | – | – | – | – | – |
| 416865 (antisense eT*eG*eG*e[5mC]*eA*dG*d[5mC]*dG*dG*dA*d[5mC]*dG*dG*d[5mC]*dA*eT*eT*eG*eG*eT) [compound 416865] | 88% | 86% | – | – | – | – | – | – | – |
| 445534 (antisense eG*eA*e[5mC]*eG*eG*d[5mC]*dA*dT*dT*dG*dG*dT*dG*e[5mC]*eA*e[5mC]*eA*eG) [compound 445534] | – | 82% | – | – | – | – | – | – | – |
